From PubChem BioAssay AID256 (DTP/NCI, 2004)
Where “and” joins values, the source holds several entries; their conditions need not be identical. Identical values can stand only once. Inconclusive results and toxic doses are left out.

Test system: CD2F1 mice, L1210 leukemia ip, survival T/C
Assay: NCI In Vivo Anticancer Drug Screen. Data for tumor model L1210 Leukemia (intraperitoneal) in CD2F1 (CDF1) mice
Conditions: higher = longer survival
In short: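 In this screen, transplantable tumors were grown in mice given either the compound or its vehicle. Results were expressed as the treated measurement relative to the control measurement.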

[1] = endpoint: mean survival time, dose: 100.0 mg/kg/injection, schedule: Q04DX002 (ip), vehicle: saline with Tween-80
[2] = endpoint: mean survival time, dose: 200.0 mg/kg/injection, schedule: Q04DX002 (ip), vehicle: saline with Tween-80
[3] = endpoint: mean survival time, dose: 400.0 mg/kg/injection, schedule: Q04DX002 (ip), vehicle: saline with Tween-80

In the case of `O=C[C@@H](CO)O[C@H](C=O)c1c[nH]c(=O)[nH]c1=O`, the T/C (endpoint: median survival time, dose: 2.5 mg/kg/injection, schedule: Q01DX009 (ip), vehicle: saline) is reported as 118 % of control, the T/C (endpoint: median survival time, dose: 7.5 mg/kg/injection, schedule: Q04DX003 (ip), vehicle: saline) is reported as 102 % of control and the T/C (endpoint: median survival time, dose: 12.5 mg/kg/injection, schedule: Q01DX009 (ip), vehicle: water) is reported as 124 % of control. The T/C (endpoint: median survival time, dose: 15.0 mg/kg/injection, schedule: Q04DX003 (ip), vehicle: saline) was 102 % of control, the T/C (endpoint: median survival time, dose: 30.0 mg/kg/injection, schedule: Q04DX003 (ip), vehicle: saline) was 114 % of control and the T/C (endpoint: median survival time, dose: 40.0 mg/kg/injection, schedule: Q01DX009 (ip), vehicle: saline) was 158 % of control. For the same compound, the T/C (endpoint: median survival time, dose: 50.0 mg/kg/injection, schedule: Q01DX009 (ip), vehicle: saline) was 158 % of control, the T/C (endpoint: median survival time, dose: 54.0 mg/kg/injection, schedule: Q04DX003 (ip), vehicle: saline) was 156 % of control and the T/C (endpoint: median survival time, dose: 60.0 mg/kg/injection, schedule: Q04DX003 (ip), vehicle: saline) was 119 % of control. For the same compound, the T/C (endpoint: median survival time, dose: 66.7 mg/kg/injection, schedule: Q04DX003 (ip), vehicle: saline) was 151 % of control, the T/C (endpoint: median survival time, dose: 90.0 mg/kg/injection, schedule: Q04DX003 (ip), vehicle: saline) was 178 % of control and the T/C (endpoint: median survival time, dose: 100.0 mg/kg/injection, schedule: Q01DX009 (ip), vehicle: water) was 89 % of control. For the same compound, the T/C (endpoint: median survival time, dose: 100.5 mg/kg/injection, schedule: Q04DX003 (ip), vehicle: saline) was 164 % of control, the T/C (endpoint: median survival time, dose: 105.0 mg/kg/injection, schedule: Q04DX003 (ip), vehicle: saline) was 229 % of control and the T/C (endpoint: median survival time, dose: 120.0 mg/kg/injection, schedule: Q04DX003 (ip), vehicle: saline) was 175 % of control and 184 % of control. For the same compound, the T/C (endpoint: median survival time, dose: 135.0 mg/kg/injection, schedule: Q04DX003 (ip), vehicle: saline) was 164 % of control, the T/C (endpoint: median survival time, dose: 165.0 mg/kg/injection, schedule: Q04DX003 (ip), vehicle: saline) was 625 % of control and the T/C (endpoint: median survival time, dose: 180.0 mg/kg/injection, schedule: Q04DX003 (ip), vehicle: saline) was 218 % of control and 228 % of control. For the same compound, the T/C (endpoint: median survival time, dose: 224.9 mg/kg/injection, schedule: Q04DX003 (ip), vehicle: saline) was 202 % of control.

For `CCOC(=O)C1OC1(C)c1ccc(Cl)cc1` (configuration not stated), the T/C (endpoint: mean survival time, dose: 100.0 mg/kg/injection, schedule: Q04DX003 (ip), vehicle: other) was 95 % of control, the T/C (endpoint: mean survival time, dose: 200.0 mg/kg/injection, schedule: Q04DX003 (ip), vehicle: other) was 110 % of control and the T/C (endpoint: mean survival time, dose: 400.0 mg/kg/injection, schedule: Q04DX003 (ip), vehicle: other) was 96 % of control.

`CCCCCCCCCCCCOP(=S)(OCC)OCC` was tested, and the T/C [1] was 98 % of control, the T/C [2] was 95 % of control and the T/C [3] was 91 % of control.

`CCCCCCCCCCCCCCn1cnc2c(Cl)ncnc21` was tested, and the T/C (endpoint: mean survival time, dose: 12.5 mg/kg/injection, schedule: Q01DX005 (ip), vehicle: other) was 105 % of control, the T/C (endpoint: mean survival time, dose: 25.0 mg/kg/injection, schedule: Q01DX005 (ip), vehicle: other) was 97 % of control and the T/C (endpoint: mean survival time, dose: 50.0 mg/kg/injection, schedule: Q01DX005 (ip), vehicle: other) was 94 % of control. For the same compound, the T/C (endpoint: mean survival time, dose: 100.0 mg/kg/injection, schedule: Q01DX005 (ip), vehicle: other) was 97 % of control and the T/C (endpoint: mean survival time, dose: 200.0 mg/kg/injection, schedule: Q01DX005 (ip), vehicle: other) was 102 % of control.

In the case of `OC(C=C(C(F)(F)F)C(F)(F)F)c1cccs1` (configuration not stated), the T/C (endpoint: mean survival time, dose: 100.0 mg/kg/injection, schedule: Q01DX009 (ip), vehicle: saline with Tween-80) is reported as 95 % of control.

`CC1C(=O)OC2C1CCC1(C)C(O)OC(=O)C(C)C21` (configuration not stated) was tested, and the T/C [1] was 104 % of control and 96 % of control, the T/C [2] was 100 % of control and 108 % of control and the T/C [3] was 100 % of control and 104 % of control.

With `CCC(C)[Se][Se]C(C)CC` (configuration not stated) the T/C (endpoint: mean survival time, dose: 25.0 mg/kg/injection, schedule: Q04DX003 (ip), vehicle: saline with Tween-80) was 93 % of control.

With `CCOC(=O)NCCBr` the T/C (endpoint: mean survival time, dose: 37.5 mg/kg/injection, schedule: Q01DX007 (ip), vehicle: saline) was 88 % of control, the T/C (endpoint: mean survival time, dose: 75.0 mg/kg/injection, schedule: Q01DX007 (ip), vehicle: saline) was 97 % of control and the T/C (endpoint: mean survival time, dose: 150.0 mg/kg/injection, schedule: Q01DX007 (ip), vehicle: saline) was 92 % of control.

For `O=c1[nH]c(=O)n(CCCO)cc1F`, the T/C (endpoint: mean survival time, dose: 12.5 mg/kg/injection, schedule: Q01DX005 (ip), vehicle: water) was 111 % of control, the T/C (endpoint: mean survival time, dose: 25.0 mg/kg/injection, schedule: Q01DX005 (ip), vehicle: water) was 115 % of control and 103 % of control and the T/C (endpoint: mean survival time, dose: 50.0 mg/kg/injection, schedule: Q01DX005 (ip), vehicle: water) was 122 % of control and 123 % of control. The T/C (endpoint: mean survival time, dose: 200.0 mg/kg/injection, schedule: Q01DX005 (ip), vehicle: water) was 96 % of control.

`C=CCN(C)N=Nc1ccc(NC(N)=O)cc1` was tested, and the T/C (endpoint: mean survival time, dose: 2.34 mg/kg/injection, schedule: Q01DX009 (ip), vehicle: Klucel (hydroxypropylcellulose) (HPC)) was 100 % of control and 104 % of control, the T/C (endpoint: mean survival time, dose: 4.68 mg/kg/injection, schedule: Q01DX009 (ip), vehicle: Klucel (hydroxypropylcellulose) (HPC)) was 104 % of control and 107 % of control and the T/C (endpoint: mean survival time, dose: 9.37 mg/kg/injection, schedule: Q01DX009 (ip), vehicle: Klucel (hydroxypropylcellulose) (HPC)) was 110 % of control. For the same compound, the T/C (endpoint: mean survival time, dose: 18.75 mg/kg/injection, schedule: Q01DX009 (ip), vehicle: Klucel (hydroxypropylcellulose) (HPC)) was 120 % of control and the T/C (endpoint: mean survival time, dose: 75.0 mg/kg/injection, schedule: Q01DX009 (ip), vehicle: Klucel (hydroxypropylcellulose) (HPC)) was 98 % of control.
